Reference: patent US9475779B2, “Substituted bicyclic dihydropyrimidinones and their use as inhibitors of neutrophil elastase activity” (priority 2014, dated 2016)

The molecules below were run against neutrophil elastase (Homo sapiens (Human), UniProt P08246) (assay: biochemical). Settings: IC50.
Type: biochemical
Method: Human Neutrophil Elastase Assay
All other materials were of the highest grade commercially available.
The following buffers were used: Compound buffer: 100 mM Tris, 500 mM NaCl, adjusted to pH 7.5; Assay buffer: 100 mM Tris, 500 mM NaCl, adjusted to pH 7.5, containing 0.01% BSA.
Assay conditions: Test compounds were prediluted in DMSO and subsequently in compound buffer (5% DMSO final). […] After inactivation of the enzyme, fluorescence intensities were measured at 380 nm excitation and 460 nm emission wavelengths.
Each plate contains wells with a high value control (DMSO+enzyme+substrate) and wells with a low value control (DMSO+inactivated enzyme+substrate). IC50 values were estimated using a sigmoidal concentration response curve with variable slope. Means of low values were taken as 0%, means of high values as 100%.

Chain of neutrophil elastase (P08246 whole entry, looked up): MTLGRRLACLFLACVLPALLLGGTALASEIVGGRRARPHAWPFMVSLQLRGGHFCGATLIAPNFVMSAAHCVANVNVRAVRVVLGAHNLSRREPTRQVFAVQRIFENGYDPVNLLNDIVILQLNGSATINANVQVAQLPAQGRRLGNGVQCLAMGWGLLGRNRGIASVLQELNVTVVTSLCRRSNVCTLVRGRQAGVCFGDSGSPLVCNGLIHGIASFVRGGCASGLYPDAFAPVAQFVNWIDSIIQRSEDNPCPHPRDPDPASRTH

Point of comparison: CN1C(=O)N(c2cccc(C(F)(F)F)c2)C2=C(C(=O)CC2)C1c1ccc(C#N)cc1CO (single isomer, unassigned) [Example A.1B, 3-Hydroxymethyl-4-[3-methyl-2,5-dioxo-1-(3-trifluoromethyl-phenyl)-2,3,4,5,6,7-hexahydro-1H-cyclopentapyrimidin-4-yl]-benzonitrile], IC50 2780 nM. Against it:
- CCNC(=O)N1C(=O)N(c2ccnc(C(F)(F)F)c2)C2=C(C(=O)CC2)C1c1ccc(C#N)cc1S(=O)(=O)CC (racemic) [Example D.4.1, 4-(4-cyano-2-ethanesulfonyl-phenyl)-2,5-dioxo-1-(2-trifluoromethyl-pyridin-4-yl)-1,2,4,5,6,7-hexahydro-cyclopentapyrimidine-3-carboxylic acid ethylamide] — lower, < 1 nM
- CCS(=O)(=O)c1cc(C#N)ccc1C1C2=C(CCC2=O)N(c2ccnc(C(F)(F)F)c2)C(=O)N1C (single isomer, unassigned) [Example D.3A, 3-Ethanesulfonyl-4-[3-methyl-2,5-dioxo-1-(2-trifluoromethyl-pyridin-4-yl)-2,3,4,5,6,7-hexahydro-1H-cyclopentapyrimidin-4-yl]-benzonitrile] — within 1.5-fold, 2810 nM
- CCS(=O)(=O)c1cc(C#N)ccc1C1NC(=O)N(c2cccc(C(F)F)c2)C2=C1C(=O)CC2 (single isomer, unassigned) [Example D.5B, 4-[1-(3-Difluoromethyl-phenyl)-2,5-dioxo-2,3,4,5,6,7-hexahydro-1H-cyclopentapyrimidin-4-yl]-3-ethanesulfonyl-benzonitrile] — 3.1-fold lower, 892 nM

Same assay, conditions: IC50, Neutrophil Elastase assay, substrate MeOSuc-Ala-Ala-Pro-Val-AMC

With CN1C(=O)N(c2cccc(C(F)(F)F)c2)C2=C(C(=O)CC2)C1c1ccc(C#N)cc1S(=O)(=O)CCO (single isomer, unassigned) [Example B.1.2A] the IC50 was 224 nM.

Same assay, conditions: Neutrophil Elastase assay, substrate MeOSuc-Ala-Ala-Pro-Val-AMC; read-out: IC50

Point of comparison: CNC(=O)N1C(=O)N(c2cncc(Br)c2)C2=C(C(=O)CC2)C1c1ccc(C#N)cc1S(C)(=O)=O (stereo not shown) [D.4.6], IC50 1.2 nM. Against it:
- CCNC(=O)N1C(=O)N(c2ccnc(C(F)(F)F)c2)C2=C(C(=O)CC2)C1c1ccc(C#N)cc1S(C)(=O)=O (single isomer, unassigned) [D.4.10] — lower, < 1 nM
- CN1C(=O)N(c2cccc(C(F)(F)F)c2)C2=C(C(=O)CC2)C1c1ccc(C#N)cc1[S+](C)[O-] (single isomer, unassigned) [Example C.1A, 3-Methanesulfinyl-4-[3-methyl-2,5-dioxo-1-(3-trifluoromethyl-phenyl)-2,3,4,5,6,7-hexahydro-1H-cyclopentapyrimidin-4-yl]-benzonitrile] — 1500-fold higher, 1820 nM
- CN1C(=O)N(c2cccc(C(F)(F)F)c2)C2=C(C(=O)CC2)C1c1ccc(C#N)cc1[S+](C)[O-] (single isomer, unassigned) [Example C.2B, 3-Methanesulfinyl-4-[3-methyl-2,5-dioxo-1-(3-trifluoromethyl-phenyl)-2,3,4,5,6,7-hexahydro-1H-cyclopentapyrimidin-4-yl]-benzonitrile] — 11-fold higher, 13 nM
- CCNC(=O)N1C(=O)N(c2ccnc(C(F)(F)F)c2)C2=C(C(=O)CC2)C1c1ccc(C#N)cc1S(=O)(=O)CC (single isomer, unassigned) [Example D.4.1B, 4-(4-cyano-2-ethanesulfonyl-phenyl)-2,5-dioxo-1-(2-trifluoromethyl-pyridin-4-yl)-1,2,4,5,6,7-hexahydro-cyclopentapyrimidine-3-carboxylic acid ethylamide] — 280-fold higher, 338 nM
- COCCS(=O)(=O)c1cc(C#N)ccc1C1NC(=O)N(c2cccc(C(F)(F)F)c2)C2=C1C(=O)CC2 (stereo not shown) [B.1.1] — 4.8-fold higher, 5.7 nM
- COCCS(=O)(=O)c1cc(C#N)ccc1C1C2=C(CCC2=O)N(c2cccc(C(F)(F)F)c2)C(=O)N1C (stereo not shown) [B.1.4] — lower, < 1 nM
- CS(=O)(=O)c1cc(C#N)ccc1C1NC(=O)N(c2cncc(C(F)(F)F)c2)C2=C1C(=O)CC2 (stereo not shown) [D.2.1] — 50-fold higher, 60 nM
- CS(=O)(=O)c1cc(C#N)ccc1C1NC(=O)N(c2cc(C(F)(F)F)ccn2)C2=C1C(=O)CC2 (stereo not shown) [D.2.2] — 54-fold higher, 65 nM
- CS(=O)(=O)c1cc(C#N)ccc1C1NC(=O)N(c2cncc(Br)c2)C2=C1C(=O)CC2 (stereo not shown) [D.2.3] — 84-fold higher, 101 nM
- CS(=O)(=O)c1cc(C#N)ccc1C1NC(=O)N(c2cncc(Cl)c2)C2=C1C(=O)CC2 (stereo not shown) [D.2.4] — 86-fold higher, 103 nM
- CN1C(=O)N(c2cncc(C(F)(F)F)c2)C2=C(C(=O)CC2)C1c1ccc(C#N)cc1S(C)(=O)=O (stereo not shown) [D.3.1] — 7.3-fold higher, 8.8 nM
- CN1C(=O)N(c2cncc(Br)c2)C2=C(C(=O)CC2)C1c1ccc(C#N)cc1S(C)(=O)=O (stereo not shown) [D.3.3] — 11-fold higher, 13 nM
- CN1C(=O)N(c2cncc(Cl)c2)C2=C(C(=O)CC2)C1c1ccc(C#N)cc1S(C)(=O)=O (stereo not shown) [D.3.4] — 6.8-fold higher, 8.1 nM
- CNC(=O)N1C(=O)N(c2cncc(C(F)(F)F)c2)C2=C(C(=O)CC2)C1c1ccc(C#N)cc1S(C)(=O)=O (stereo not shown) [D.4.2] — lower, < 1 nM
- CCNC(=O)N1C(=O)N(c2cncc(C(F)(F)F)c2)C2=C(C(=O)CC2)C1c1ccc(C#N)cc1S(C)(=O)=O (stereo not shown) [D.4.3] — lower, < 1 nM
- CCNC(=O)N1C(=O)N(c2cncc(Br)c2)C2=C(C(=O)CC2)C1c1ccc(C#N)cc1S(C)(=O)=O (stereo not shown) [D.4.7] — lower, < 1 nM
- CCNC(=O)N1C(=O)N(c2cncc(Cl)c2)C2=C(C(=O)CC2)C1c1ccc(C#N)cc1S(C)(=O)=O (stereo not shown) [D.4.9] — lower, < 1 nM
- N#Cc1ccc(C2NC(=O)N(c3cccc(C(F)(F)F)c3)C3=C2C(=O)CC3)c(S(=O)(=O)CCCO)c1 (stereo not shown) [Example B.1, 4-[2,5-Dioxo-1-(3-trifluoromethyl-phenyl)-2,3,4,5,6,7-hexahydro-1H-cyclopentapyrimidin-4-yl]-3-(3-hydroxy-propane-1-sulfonyl)-benzonitrile] — 1.8-fold higher, 2.1 nM
- CCNC(=O)N1C(=O)N(c2cccc(C(F)(F)F)c2)C2=C(C(=O)CC2)C1c1ccc(C#N)cc1[S+](C)[O-] (stereo not shown) [Example C.3, 4-(4-Cyano-2-methanesulfinyl-phenyl)-2,5-dioxo-1-(3-trifluoromethyl-phenyl)-1,2,4,5,6,7-hexahydro-cyclopentapyrimidine-3-carboxylic acid ethylamide] — lower, < 1 nM
- CCS(=O)(=O)c1cc(C#N)ccc1C1NC(=O)N(c2ccnc(C(F)(F)F)c2)C2=C1C(=O)CC2 (stereo not shown) [Example D.2, 4-[2,5-Dioxo-1-(2-trifluoromethyl-pyridin-4-yl)-2,3,4,5,6,7-hexahydro-1H-cyclopentapyrimidin-4-yl]-3-ethanesulfonyl-benzonitrile] — 20-fold higher, 24 nM
- CCS(=O)(=O)c1cc(C#N)ccc1C1C2=C(CCC2=O)N(c2ccnc(C(F)(F)F)c2)C(=O)N1C(=O)NC (stereo not shown) [Example D.4, 4-(4-Cyano-2-ethanesulfonyl-phenyl)-2,5-dioxo-1-(2-trifluoromethyl-pyridin-4-yl)-1,2,4,5,6,7-hexahydro-cyclopentapyrimidine-3-carboxylic acid methylamide] — lower, < 1 nM

Same assay, conditions: read-out: IC50

Point of comparison: CCS(=O)(=O)c1cc(C#N)ccc1C1C2=C(CCC2=O)N(c2ccnc(C(F)(F)F)c2)C(=O)N1C (racemic) [Example D.3, 3-Ethanesulfonyl-4-[3-methyl-2,5-dioxo-1-(2-trifluoromethyl-pyridin-4-yl)-2,3,4,5,6,7-hexahydro-1H-cyclopentapyrimidin-4-yl]-benzonitrile], IC50 4 nM. Against it:
- CCS(=O)(=O)c1cc(C#N)ccc1C1NC(=O)N(c2cccc(C(F)F)c2)C2=C1C(=O)CC2 (racemic) [Example D.5, 4-[1-(3-Difluoromethyl-phenyl)-2,5-dioxo-2,3,4,5,6,7-hexahydro-1H-cyclopentapyrimidin-4-yl]-3-ethanesulfonyl-benzonitrile] — within 1.5-fold, 5.5 nM
- CC[S+]([O-])c1cc(C#N)ccc1C1NC(=O)N(c2cccc(C(F)(F)F)c2)C2=C1C(=O)CC2 (single isomer, unassigned) [Example C.4.1, 4-[2,5-Dioxo-1-(3-trifluoromethyl-phenyl)-2,3,4,5,6,7-hexahydro-1H-cyclopentapyrimidin-4-yl]-3-ethanesulfinyl-benzonitrile] — within 1.5-fold, 5.2 nM
- CC[S+]([O-])c1cc(C#N)ccc1C1NC(=O)N(c2cccc(C(F)(F)F)c2)C2=C1C(=O)CC2 (single isomer, unassigned) [Example C.4.2, 4-[2,5-Dioxo-1-(3-trifluoromethyl-phenyl)-2,3,4,5,6,7-hexahydro-1H-cyclopentapyrimidin-4-yl]-3-ethanesulfinyl-benzonitrile] — 2.2-fold higher, 8.9 nM
- CC[S+]([O-])c1cc(C#N)ccc1C1C2=C(CCC2=O)N(c2cccc(C(F)(F)F)c2)C(=O)N1C(=O)NC (single isomer, unassigned) [Example C.6.1, 4-(4-Cyano-2-ethanesulfinyl-phenyl)-2,5-dioxo-1-(3-trifluoromethyl-phenyl)-1,2,4,5,6,7-hexahydro-cyclopentapyrimidine-3-carboxylic acid methylamide] — lower, < 1 nM
- CC[S+]([O-])c1cc(C#N)ccc1C1C2=C(CCC2=O)N(c2cccc(C(F)(F)F)c2)C(=O)N1C(=O)NC (single isomer, unassigned) [Example C.6.2, 4-(4-Cyano-2-ethanesulfinyl-phenyl)-2,5-dioxo-1-(3-trifluoromethyl-phenyl)-1,2,4,5,6,7-hexahydro-cyclopentapyrimidine-3-carboxylic acid methylamide] — lower, < 1 nM
- CN1C(=O)N(c2cc(C(F)(F)F)ccn2)C2=C(C(=O)CC2)C1c1ccc(C#N)cc1S(C)(=O)=O (stereo not shown) [D.3.2] — 2.4-fold higher, 9.5 nM
- CNC(=O)N1C(=O)N(c2cncc(Cl)c2)C2=C(C(=O)CC2)C1c1ccc(C#N)cc1S(C)(=O)=O (stereo not shown) [D.4.8] — lower, < 1 nM
- CN1C(=O)N(c2cccc(C(F)(F)F)c2)C2=C(C(=O)CC2)C1c1ccc(C#N)cc1CO (stereo not shown) [Example A.1, 3-Hydroxymethyl-4-[3-methyl-2,5-dioxo-1-(3-trifluoromethyl-phenyl)-2,3,4,5,6,7-hexahydro-1H-cyclopentapyrimidin-4-yl]-benzonitrile] — 2.5-fold lower, 1.6 nM
- CCS(=O)(=O)c1cc(C#N)ccc1C1C2=C(CCC2=O)N(c2cccc(C(F)F)c2)C(=O)N1C (stereo not shown) [Example D.6, 4-[1-(3-Difluoromethyl-phenyl)-3-methyl-2,5-dioxo-2,3,4,5,6,7-hexahydro-1H-cyclopentapyrimidin-4-yl]-3-ethanesulfonyl-benzonitrile] — lower, < 1 nM
